{"source": "patent US10206906B2", "about": "“Synergistic combination of a phenolic-rich maple syrup extract and an antibiotic” (priority 2015, dated 2019)", "key": {"P. mirabilis HI4320 [1]": {"system": "P. mirabilis HI4320", "test": "Checkerboard microdilution assay (growth inhibition synergy)", "type": "cell-based, Proteus mirabilis", "conditions": "ciprofloxacin/PRMSE combination; FIC of the labelled component", "method": "(§1) The checkerboard microdilution assay is used for evaluation of in vitro antimicrobial synergy between two compounds (i.e., antibiotic/PRMSE, antibiotic/pure phenolic compound, and pure phenolic compounds with each other). Two-fold serial dilutions are prepared in MHB-II for each of the two compounds under study. The serial dilutions are then loaded into 96 well plates to achieve combinations having different concentrations of each of the two compounds. Each well is subsequently inoculated with 10^6 CFU mL^−1 of the desired bacterial strain and incubated at 37° C. for 18 h under static conditions. The Fractional Inhibitory Concentration Index (FICI) for each combination is calculated by using the following formula: FICcomponent 1=MICcomponent 1, in combination/MICcomponent 1,alone FICI=FICcomponent 1+FICcomponent 2\n(§2) The FICIs are interpreted as follows: FICI of […] (synergy); 0.5<FICI ≤1 (no interaction/indifference); FICI of >4 (antagonism)."}, "D. melanogaster flies": {"system": "D. melanogaster flies", "test": "D. melanogaster survival when fed extract or antibiotic individually", "type": "in vivo, Drosophila melanogaster", "conditions": "PRMSE 6.25 mg/mL, ciprofloxacin 0.015 μg/mL, within 264 h", "method": "As well, antibiotic ciprofloxacin is analyzed in combination with PRMSE for its synergistic anti-infective interactions. Fruit flies (D. melanogaster) are infected orally in fly feeding assay as before (Lutter et al., 2008, Infect Immun., 76: 1877-1888), with some modifications. Briefly, flies are anesthetized under a gentle stream of carbon dioxide. Male flies (3- to 5-days-old) are starved of food and water for 5-6 h and separated into vials (10 per vial) containing 5 ml of 5% sucrose agar (sterile) without and with phenolic extract without and with antibiotic at sub-MICs and 2.3-cm filter paper disks (sterile) containing freshly grown bacterial culture suspension. To achieve this freshly grown culture, an overnight P. aeruginosa PA14 culture is inoculated in 6 mL TSB culture and incubated at 37° C. and 100 rpm until OD600=3.0. This culture is centrifuged at 12,000×g for 1 min and the resulting pellet resuspended in 150 μL of sterile 5% sucrose, without and with sub-MICs of phenolic extract or antibiotic. […] Post-infection mortality of flies is monitored daily for 14 days, with each treatment tested twice in duplicate."}, "E. coli CFT073 [2]": {"system": "E. coli CFT073", "test": "Determination of minimum inhibitory concentration (MIC)", "type": "cell-based", "conditions": "Escherichia coli, CFT073; antibiotic alone; MHB-II, 37° C., 18 h; read-out: MIC", "method": "(§3) A range of concentration of antibiotics, ciprofloxacin (0.0003-0.25 μg mL^−1) and carbenicillin (0.5-512 μg mL^−1), are chosen due to their known potency against all four bacterial strains. Dilutions are prepared in flat bottom, 96 well microtitre plates (Falcon™, Corning™, Fisher Scientific, ON, Canada). Each well of a microtitre plate is then inoculated with the desired bacterial strain (grown in MHB-II and diluted to […]) and the plate is incubated at 37° C. for 18 h under static conditions. Bacterial growth is assessed by (i) monitoring the optical density of the cell suspension in each well at 600 nm (OD600 nm), and (ii) the resazurin microtitre plate assay. In the resazurin microtitre plate assay, each well of a microtitre plate is supplemented with 20 μM resazurin, incubated in the dark for 20 min at room temperature, followed by fluorescence measurements at ex/em 570/590 nm using a TECAN Infinite M200 Pro microplate reader (Tecan Group Ltd., Switzerland). The lowest concentration of a compound able to prevent increase in OD600 nm and resazurin fluorescence intensity is recorded as the MIC for that compound."}, "P. mirabilis HI4320 [3]": {"system": "P. mirabilis HI4320", "test": "Determination of minimum inhibitory concentration (MIC)", "type": "cell-based", "conditions": "Proteus mirabilis, HI4320; antibiotic alone; MHB-II, 37° C., 18 h; read-out: MIC", "method": "as §3"}, "P. aeruginosa PA14 [4]": {"system": "P. aeruginosa PA14", "test": "Determination of minimum inhibitory concentration (MIC)", "type": "cell-based", "conditions": "Pseudomonas aeruginosa, PA14; antibiotic alone; MHB-II, 37° C., 18 h; read-out: MIC", "method": "as §3"}, "P. aeruginosa PAO1 [5]": {"system": "P. aeruginosa PAO1", "test": "Determination of minimum inhibitory concentration (MIC)", "type": "cell-based", "conditions": "Pseudomonas aeruginosa, PAO1; antibiotic alone; MHB-II, 37° C., 18 h; read-out: MIC", "method": "as §3"}, "P. aeruginosa PA14 [6]": {"system": "P. aeruginosa PA14", "test": "Checkerboard microdilution assay (growth inhibition synergy)", "type": "cell-based, Pseudomonas aeruginosa", "conditions": "ciprofloxacin/PRMSE combination; FIC of the labelled component", "method": "as §1, §2"}, "P. aeruginosa PAO1 [7]": {"system": "P. aeruginosa PAO1", "test": "Checkerboard microdilution assay (growth inhibition synergy)", "type": "cell-based, Pseudomonas aeruginosa", "conditions": "ciprofloxacin/PRMSE combination; FIC of the labelled component", "method": "as §1, §2"}, "P. aeruginosa PA14 lawn": {"system": "P. aeruginosa PA14 lawn", "test": "In vitro analysis of hemolymph recovered from treated G. mellonella larvae", "set-up": "species or system Galleria mellonella", "conditions": "hemolymph recovered 3 h post-injection, spotted on PA14 lawn, 24 h at 37° C.", "experimental": "Larvae were injected with PRMSE (mg/mL) or Cip (μg/mL) alone and in combination, and hemolymph recovered 3 h after treatment were spotted on Pseudomonas isolation agar plates previously inoculated with PA14 cells to produce a lawn of confluent growth. The plate was observed after 24 h of incubation at 37° C. The experiment was performed with three larvae per each condition in triplicate. S-control: saline control.\nTo rule out any growth-inhibitory effect of PRMSE on PA14 cells due to induction of the immune response, production of antimicrobial peptides or transformation of the extract into a toxic compound(s) in the larval hemolymph, an additional set of larvae are injected with 5 μL of PRMSE without and with ciprofloxacin (sub-MICs) or saline solution as a control. The larval hemolymph is recovered at 3 h after the treatment and 5 μL aliquot of each larval hemolymph sample is spotted on the Pseudomonas isolation agar (BD-Difco) plates previously inoculated with PA14 cells to produce a lawn of confluent growth. The appearance of growth inhibition halos is verified after 24 h of incubation at 37° C."}, "[8]": {"system": "P. aeruginosa PA14 infection", "test": "Drosophila melanogaster (fruit fly) feeding infection assay", "type": "in vivo", "conditions": "monotherapy at sub-MIC (PRMSE 6.25 mg mL^−1, ciprofloxacin 0.015 μg mL^−1)", "experimental": "Mortality was scored daily for 14 days. […] Results represent measurements from experiments performed with duplicates, twice (*p<0.01, Log-rank Mantel-cox test).\nIn this infection assay, PRMSE was analyzed for its anti-infective activity. As well, antibiotic ciprofloxacin is analyzed in combination with PRMSE for its synergistic anti-infective interactions. Fruit flies (D. melanogaster) are infected orally in fly feeding assay as before (Lutter et al., 2008, Infect Immun., 76: 1877-1888), with some modifications. Briefly, flies are anesthetized under a gentle stream of carbon dioxide. Male flies (3- to 5-days-old) are starved of food and water for 5-6 h and separated into vials (10 per vial) containing 5 ml of 5% sucrose agar (sterile) without and with phenolic extract without and with antibiotic at sub-MICs and 2.3-cm filter paper disks (sterile) containing freshly grown bacterial culture suspension. To achieve this freshly grown culture, an overnight P. aeruginosa PA14 culture is inoculated in 6 mL TSB culture and incubated at 37° C. and 100 rpm until OD600=3.0. This culture is centrifuged at 12,000×g for 1 min and the resulting pellet resuspended in 150 μL of sterile 5% sucrose, without and with sub-MICs of phenolic extract or antibiotic. […] Post-infection mortality of flies is monitored daily for 14 days, with each treatment tested twice in duplicate."}, "P. aeruginosa PA14 [9]": {"system": "P. aeruginosa PA14", "test": "Survival of PA14 on sucrose filters during fly feeding assay", "type": "cell-based, Pseudomonas aeruginosa", "conditions": "PRMSE 6.25 mg mL-1, ciprofloxacin 0.015 μg mL-1, mono- and combination; six days", "experimental": "Total viable bacterial counts per filter were determined every second day for filters containing bacterial cells on sucrose agar. PA14 cells on filter were untreated or treated with PRMSE (6.25 mg mL-1) or ciprofloxacin (0.015 μg mL-1) alone and in combination. Average data represent data from experiment performed in triplicate and error bars represent S.D.\nTo address this possibility, the survival of PA14 on the paper discs without and with sub-MICs of PRMSE or antibiotic under the same conditions as the fly feeding assay is analyzed. Enumeration of viable bacteria on filters during the infection period is performed using separate test vials with different treatments inoculated with P. aeruginosa PA14 and inoculated control sucrose vials that are sampled on alternative days, up to 6 days during infection period. Briefly, filters from the test vials are removed in a sterile environment, placed in 50 mL polypropylene tube containing 5 mL of LB broth and vortexed for 30 s. This LB medium containing the sampled bacterial cells is serially diluted in phosphate buffer saline solution (pH 7.4), and 30 μL is plated onto Pseudomonas isolation agar (BD-Difco). Colonies are enumerated after the incubation at 37° C. for 24 h."}, "G. mellonella larvae": {"system": "G. mellonella larvae", "test": "G. mellonella larvae survival after injection of extract or antibiotic alone", "type": "in vivo, Galleria mellonella", "conditions": "injected alone; PRMSE 12.5 mg/mL, ciprofloxacin 0.03 μg/mL; within 72 h", "method": "Each data set is representative of experiments with five larvae per condition in triplicate.\nG. mellonella infection assay is performed as described previously with some modification (Jander et al., 2000, J Bacteriol., 182: 3843-3845). Briefly, PA14 culture grown overnight in TSB broth is diluted 1:100 in the same growth medium and further grown to OD600 nm of 1.27 at 37° C. under 100 rpm shaking. Freshly grown culture is centrifuged, and pellets are washed and resuspended in 10 mM MgSO4 to an OD600 of 0.1. […] Ampicillin is used to prevent infection by bacterial contaminants on the surface of the larvae at a final concentration of approximately 5 ng per larva during survival phase. G. mellonella larvae are injected with 5 μL aliquot of each treatment solution using prewashed Hamilton syringe. Five larvae are injected per each treatment and the assay is performed in triplicate. […] All injected larvae are incubated in Petri plates at 28° C. under the dark condition, and the number of dead larvae is scored daily after infection. […] A mock inoculation using prewashed Hamilton syringe is also performed in each experiment to monitor the killing due to physical injury or infection by pathogenic contaminants. […]"}, "[10]": {"system": "P. aeruginosa PA14 infection", "test": "Galleria mellonella larvae (wax moth) infection assay", "type": "in vivo", "conditions": "monotherapy at sub-MIC (PRMSE 12.5 mg/mL, ciprofloxacin 0.03 μg/mL)", "experimental": "Each data set represents one experiment with five larvae per condition in triplicate, the experiment repeated twice (*P<0.05, Mantel-cox test, n=6).\nBriefly, PA14 culture grown overnight in TSB broth is diluted 1:100 in the same growth medium and further grown to OD600 nm of 1.27 at 37° C. under 100 rpm shaking. Freshly grown culture is centrifuged, and pellets are washed and resuspended in 10 mM MgSO4 to an OD600 of 0.1. To prepare the lethal dose of P. aeruginosa PA14 culture serial 10-fold dilutions are made in 10 mM MgSO4 supplemented with 1 mg/mL of ampicillin (adjusted to about 1-10^3 bacterial cells in 5 μL of suspension) containing or not containing PRMSE, without and with ciprofloxacin at sub-MICs. Ampicillin is used to prevent infection by bacterial contaminants on the surface of the larvae at a final concentration of approximately 5 ng per larva during survival phase. G. mellonella larvae are injected with 5 μL aliquot of each treatment solution using prewashed Hamilton syringe. Five larvae are injected per each treatment and the assay is performed in triplicate. PRMSE and ciprofloxacin at sub-MICs are assessed individually to monitor adverse effect on larvae survival. […] All injected larvae are incubated in Petri plates at 28° C. under the dark condition, and the number of dead larvae is scored daily after infection. […]"}, "E. coli CFT073 [11]": {"system": "E. coli CFT073", "test": "Checkerboard microdilution assay (growth inhibition synergy)", "type": "cell-based, Escherichia coli", "conditions": "ciprofloxacin/PRMSE combination; FIC of the labelled component", "method": "as §1, §2"}}}
{"smiles": "O=C(O)c1cn(C2CC2)c2cc(N3CCNCC3)c(F)cc2c1=O", "note": "[ciprofloxacin, reference compound]", "values": [{"measurement": "FIC (Fractional Inhibitory Concentration)", "setting": "P. mirabilis HI4320 [1]", "value": 0.02}, {"measurement": "killing effect on D. melanogaster flies", "setting": "D. melanogaster flies", "value": "no killing effect"}, {"measurement": "MIC", "setting": "E. coli CFT073 [2]", "value": 8, "unit": "ng/mL"}, {"measurement": "MIC", "setting": "P. mirabilis HI4320 [3]", "value": 0.016, "unit": "µg/mL"}, {"measurement": "MIC", "setting": "P. aeruginosa PA14 [4]", "value": 0.06, "unit": "µg/mL"}, {"measurement": "MIC", "setting": "P. aeruginosa PAO1 [5]", "value": 1, "unit": "µg/mL"}, {"measurement": "FIC (Fractional Inhibitory Concentration)", "setting": "P. aeruginosa PA14 [6]", "value": 0.03}, {"measurement": "FIC (Fractional Inhibitory Concentration)", "setting": "P. aeruginosa PAO1 [7]", "value": 0.03}, {"measurement": "effect of recovered larval hemolymph on PA14 growth in vitro", "setting": "P. aeruginosa PA14 lawn", "value": "no effect"}, {"measurement": "protection of D. melanogaster against PA14 infection", "setting": "[8]", "value": "fails to protect"}, {"measurement": "culturability of PA14 cells on filter paper discs", "setting": "P. aeruginosa PA14 [9]", "value": "no significant difference"}, {"measurement": "killing effect on G. mellonella larvae", "setting": "G. mellonella larvae", "value": "no killing effect"}, {"measurement": "protection of G. mellonella larvae against PA14 infection", "setting": "[10]", "value": "fails to protect"}, {"measurement": "FIC (Fractional Inhibitory Concentration)", "setting": "E. coli CFT073 [11]", "value": 0.25}]}
